For assay [1], the system named is AD model mice (NC/Nga, mite allergen-induced). As to the kind of experiment: Amelioration of pruritus in AD model mice (scratching behavior, MicroAct). The class given is in vivo, mouse. Particulars: 200 μL subcutaneous, 0.5 mg/mL Compound 1 or 0.05 mg/mL Compound 2, three times a week; measured 3 hours; vs solvent alone; FIG. 7. The method, then: Seven-week-old female NC/Nga mice were used. Preparation of AD model mice: The back of the neck was shaved, and 100 mg of an ointment containing mite allergen: Biostir AD (Biostir Inc.) was applied to the back of the neck and auricular region under isoflurane anesthesia for initial sensitization. Four days after the first application of the ointment containing mite allergen, 150 μL of 4% (w/v) SDS solution and 100 mg of ointment containing mite allergen were applied to the back of the neck and auricular region under isoflurane anesthesia. Thereafter, the same procedure was performed four times at a frequency of once every 3 to 4 days to induce AD-like dermatitis.
Compound 1 or Compound 2, whose C3a receptor antagonism was confirmed in Example 4 above, was used as a C3a receptor antagonist. Compound 1 or Compound 2 was dissolved in saline containing 20% polyethylene glycol 400, of which 200 μL was administered subcutaneously to the back of the neck. The control group was administered with the same amount of only the above solvent. The concentration of the C3a receptor antagonist solution was set at 0.5 mg/mL for Compound 1 and 0.05 mg/mL for Compound 2. […]
Four days after the last application of the ointment containing mite allergen, the scratching behavior was measured for 3 hours after the last administration of the sample. […]

The next assay concerns the target T1, C3a receptor (Homo sapiens, UniProt Q16581).
T1 sequence (Q16581 1-482): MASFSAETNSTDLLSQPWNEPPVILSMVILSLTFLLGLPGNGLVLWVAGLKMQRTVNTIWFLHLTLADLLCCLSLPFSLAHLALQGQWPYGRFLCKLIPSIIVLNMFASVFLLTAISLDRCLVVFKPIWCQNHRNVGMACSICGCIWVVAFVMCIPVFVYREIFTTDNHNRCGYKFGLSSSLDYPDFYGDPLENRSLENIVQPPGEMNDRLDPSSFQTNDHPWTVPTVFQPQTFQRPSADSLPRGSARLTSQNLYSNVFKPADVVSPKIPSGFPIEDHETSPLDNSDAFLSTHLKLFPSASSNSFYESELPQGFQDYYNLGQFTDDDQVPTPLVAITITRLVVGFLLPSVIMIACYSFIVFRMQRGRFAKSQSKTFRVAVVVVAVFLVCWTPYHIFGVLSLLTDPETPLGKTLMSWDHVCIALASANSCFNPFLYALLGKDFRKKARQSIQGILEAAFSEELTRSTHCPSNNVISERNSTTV
As to the kind of experiment: Ca2+-flux assay of C3a receptor antagonism in transfected HEK293 cells. The class given is cell-based. To be noted: antagonist 10 nM, mouse TLQP-21 1 μM, 15 minutes preincubation, HEK293 with C3a receptor and GNA16 vectors, vs control; FIG. 6.

Assay [2] concerns AEW model mice (C57BL/6J). In words: Amelioration of pruritus in AEW model mice (scratching behavior, MicroAct). To be noted: 200 μL subcutaneous, 0.5 mg/mL Compound 1 or 0.05 mg/mL Compound 2, once daily for 8 days; measured 3 hours; vs solvent alone; FIG. 8. The class given is in vivo, mouse. An excerpt:
The animals used were male C57BL/6J mice.
Preparation of AEW model: The back of the neck was shaved, and absorbent cotton soaked with a 1:1 (v/v) mixture of acetone and diethyl ether was applied and allowed to stand for 15 seconds. Immediately thereafter, absorbent cotton soaked with water was applied for 30 seconds. This treatment was repeated twice/day (morning and evening) for 7 days.
Compound 1 or Compound 2, whose C3a receptor antagonism was confirmed in Example 4 above, was used as a C3a receptor antagonist. Compound 1 or Compound 2 was dissolved in saline containing 20% polyethylene glycol 400, of which 200 μL was administered subcutaneously to the back of the neck. The control group was administered with the same amount of only the above solvent. The concentration of the C3a receptor antagonist solution was set at 0.5 mg/mL for Compound 1 and 0.05 mg/mL for Compound 2. Sample administration started after the first AEW treatment and was performed at a frequency of once daily for 8 days.
Sixteen hours after the last AEW treatment, the scratching behavior was measured for 3 hours after the last administration of the sample. MicroAct (Neuroscience) was used to measure the scratching behavior.

The text below walks through data of US20240415807A1, “AGENT FOR PREVENTING OR AMELIORATING PRURITUS” (KAO CORPORATION, priority 2021, published 2024).

Method for C3a receptor: In the following evaluation, Compound 1 and Compound 2 were dissolved in DMSO and diluted with HBSS as appropriate.
Human Embryonic Kidney cells 293 (HEK293) were used, transfected with the expression vectors necessary for evaluation according to the following.
A transfection solution was prepared by sequentially adding C3a receptor expression vector, GNA16 expression vector, and PEI-MAX (PolyScience) solution to serum-free DMEM medium, mixing well, and then allowing it to stand at room temperature for 20 minutes. […]
The cells for evaluating C3a receptor response described above were seeded in a 96-well Black Polystyrene Microplate (Thermo fisher scientific) precoated with Poly-L-Ornithine Solution (FUJIFILM Wako Pure Chemical). […] After 15 minutes, a mouse TLQP-21 solution was added for C3a receptor stimulation, and the Ca^2+ influx associated with the stimulation was measured over time as intracellular fluorescence intensity (Ex: 494 nm, Em: 525 nm). The value obtained by subtracting the measured value when HBSS was added instead of mouse TLQP-21 solution (blank) was used as the measured value. The C3a receptor antagonist solution and mouse TLQP-21 solution were added after adjusting their concentrations by appropriately diluting them so that their final concentrations when measuring fluorescence intensity were 10 nM and 1 μM, respectively. […]

In the case of `N=C(N)NCCC[C@H](NC(=O)c1ccc(C(c2ccccc2)c2ccccc2)s1)C(=O)O` [Compound 1, L-arginine, N2-[[5-(diphenylmethyl)-2-thienyl]carbonyl]], the “Scratching behavior in AD model mice” value in assay [1] is listed as “significant decrease in scratching behavior”. In addition, at C3a receptor, the “Fluorescence intensity due to C3a receptor stimulation by TLQP-21 (integrated over 3 min)” value is listed as “greatly suppressed”. In assay [2], the “Scratching behavior in AEW model mice” value is recorded as “significant decrease in scratching behavior”.

With `Cc1cc(C(c2ccc(Cl)cc2)c2ccc(Cl)cc2)sc1C(=O)N[C@@H](CCCNC(=N)N)C(=O)O` [Compound 2, L-arginine, N2-[[5-[bis(4-chlorophenyl)methyl]-3-methyl-2-thienyl]carbonyl]], the “Scratching behavior in AD model mice” value in assay [1] is on record as “significant decrease in scratching behavior”. For the same molecule, the “Fluorescence intensity due to C3a receptor stimulation by TLQP-21 (integrated over 3 min)” value on C3a receptor is reported as “greatly suppressed”. The “Scratching behavior in AEW model mice” value in assay [2] is reported as “significant decrease in scratching behavior”.
